Test results from patent US4016159A, “Acylamino-cephem-carboxylic acids containing an amidino or guanidino group in the molecule” (Hoechst Aktiengesellschaft, priority 1973, dated 1977).
≈ marks a conversion by molar mass, not a printed value.

What was measured:
Assay type in all cases: cell-based
[1] = test system: Staphylococcus aureus 285; assay: Minimum inhibition concentration (MIC), Table 1; conditions: for MIC: Staphylococcus aureus, 285, Germ: Staphylococcus aureus 285, read-out: Minimum inhibition concentration (MIC)
Text: (§1) Minimum inhibition concentration (MIC) in γ/ml
Germ: Staphylococcus aureus 285

Streptococcus D = assay: Minimum inhibition concentration (MIC), Table 4; conditions: Germ: Streptococcus D; for MIC: Streptococcus, read-out: Minimum inhibition concentration (MIC)
Text: as §1

Proteus mirabilis = assay: Minimum inhibition concentration (MIC), Table 2; conditions: Germ: Proteus mirabilis; read-out: Minimum inhibition concentration (MIC)
Text: Minimum inhibition concentration (MIC) in /ml

Streptococcus pyogenes A = assay: Minimum inhibition concentration (MIC), Table 3; conditions: Germ: Streptococcus pyogenes A; for MIC: read-out: Minimum inhibition concentration MIC
Text: Minimum inhibition concentration MIC in γ/ml
Germ: Streptococcus pyogenes A

[2] = test system: Staphylococcus aureus SG 511; assay: Minimum inhibition concentration (MIC), Table 5; conditions: Staphylococcus aureus, SG511, Germ: Staphylococcus aureus SG 511; read-out: Minimum inhibition concentration (MIC)
Text: as §1
Germ: Staphylococcus aureus SG 511

Cc1nnc(SCC2=C(C(=O)O)N3C(=O)C(NC(=O)Cc4ccc(C(=N)N)s4)C3SC2)s1 (stereo not shown) [Example 2, 3-[(5-methyl-1,3,4-thiadiazole-2-yl)-thiomethyl]-7-(5-amidinothienylacetamido)-Δ-3-cephem-4-carboxylic acid] gave an MIC [1] of 0.156 to 0.391 µg/mL (≈ 0.305 to 0.766 µM), an MIC (Streptococcus D) of 10 to 50 µg/mL (≈ 19.6 to 97.9 µM) and an MIC (Proteus mirabilis) of 25 µg/mL (≈ 49 µM). For the same compound, the MIC (Streptococcus pyogenes A) was 0.008 to 0.0156 µg/mL (≈ 0.0157 to 0.0305 µM).

Cc1n[nH]c(SCC2=C(C(=O)O)N3C(=O)C(NC(=O)Cc4ccc(C(=N)N)cc4)C3SC2)n1 (stereo not shown) [Example 23, 3-[(5-methyl-1,2,4-triazole-3-yl)-thiomethyl]-7-(4-amidino-phenylacetamido)-Δ 3-cephem-4-carboxylic acid] was tested, and the MIC [1] was 1.6 to 2.5 µg/mL (≈ 3.28 to 5.13 µM) and the MIC (Proteus mirabilis) was 25 µg/mL (≈ 51.3 µM).

In the case of N=C(N)c1ccc(CC(=O)NC2C(=O)N3C(C(=O)O)=C(CSc4nc[nH]n4)CSC23)cc1 (stereo not shown) [Example 24, 3-[(1,2,4-triazole-3-yl)-thiomethyl]-7-(4-amidino-phenylacetamido)-Δ3-cephem-4-carboxylic acid], the MIC [1] is reported as 0.5 to 1.25 µg/mL (≈ 1.06 to 2.64 µM) and the MIC (Proteus mirabilis) is reported as 25 µg/mL (≈ 52.8 µM).

For CSc1nc(SCC2=C(C(=O)O)N3C(=O)C(NC(=O)Cc4ccc(C5=NCCCN5)cc4)C3SC2)nc(-c2ccccc2)n1 (stereo not shown) [Example 69, 3-[(4-methylmercapto-6-phenyl-1,3,5-triazine-2-yl)-thiomethyl]-7-[4-(1,4,5,6-tetrahydropyrimide-2-yl)-phenyl-acetamido]-Δ 3-cephem-4-carboxylicacid], the MIC [1] was 0.156 to 0.391 µg/mL (≈ 0.241 to 0.604 µM), the MIC [2] was 0.0196 to 0.0391 µg/mL (≈ 0.0303 to 0.0604 µM) and the MIC (Streptococcus D) was 10 to 50 µg/mL (≈ 15.4 to 77.2 µM). It also gave an MIC (Streptococcus pyogenes A) of 0.000391 to 0.0078 µg/mL (≈ 0.000604 to 0.012 µM).

In the case of O=C(Cc1ccc(C2=NCCCN2)cc1)NC1C(=O)N2C(C(=O)O)=C(CSc3nnnn3-c3ccccc3)CSC12 (stereo not shown) [Example 71, 3-[(1-phenyl-1-H-tetrazole-5-yl)-thiomethyl]-7-[4-(1,4,5,6-tetrahydropyrimide-2-yl)-phenyl-acetamido]-Δ 3-cephem-4-carboxylic acid], the MIC [1] is reported as 0.5 to 1.25 µg/mL (≈ 0.846 to 2.12 µM), the MIC [2] is reported as 0.0625 to 0.078 µg/mL (≈ 0.106 to 0.132 µM) and the MIC (Streptococcus D) is reported as 10 to 50 µg/mL (≈ 16.9 to 84.6 µM). It also gave an MIC (Streptococcus pyogenes A) of 0.000391 to 0.0078 µg/mL (≈ 0.000662 to 0.0132 µM).

With O=C(COc1ccc(C2=NCCN2)cc1)NC1C(=O)N2C(C(=O)O)=C(CSc3nncs3)CSC12 (stereo not shown) [Example 73, 3-[(1,3,4-thiadiazole-2-yl)-thiomethyl]-7-[4-(imidazoline-2-yl)-phenoxyacetamido]-Δ 3-cephem-4-carboxylic acid] the MIC [1] was 0.5 to 1.25 µg/mL (≈ 0.939 to 2.35 µM), the MIC [2] was 0.0625 to 0.078 µg/mL (≈ 0.117 to 0.146 µM) and the MIC (Streptococcus D) was 10 to 50 µg/mL (≈ 18.8 to 93.9 µM). It also gave an MIC (Streptococcus pyogenes A) of 0.000391 to 0.0078 µg/mL (≈ 0.000734 to 0.0146 µM).

For O=C(Cc1ccc(C2=NCCCN2)cc1)NC1C(=O)N2C(C(=O)O)=C(CSc3nnc(-c4ccccc4)s3)CSC12 (stereo not shown) [Example 80, 3-[(5-phenyl-1,3,4,-thiadiazole-2-yl)-thiomethyl]-7-[4-(1,4,5,6-tetrahydropyrimide-2-yl)-phenylacetamido]-Δ 3-cephem-4-carboxylic acid], the MIC [1] was 0.156 to 0.391 µg/mL (≈ 0.257 to 0.644 µM), the MIC [2] was 0.0625 to 0.078 µg/mL (≈ 0.103 to 0.129 µM) and the MIC (Streptococcus D) was 10 to 50 µg/mL (≈ 16.5 to 82.4 µM). It also gave an MIC (Streptococcus pyogenes A) of 0.000391 to 0.0078 µg/mL (≈ 0.000644 to 0.0129 µM).

For O=C(Cc1ccc(C2=NCCCN2)cc1)NC1C(=O)N2C(C(=O)O)=C(CSc3nc4ccccc4s3)CSC12 (stereo not shown) [Example 85, 3-[benzothiazole-2-yl-thiomethyl]-7-[4-(1,4,5,6-tetrahydropyrimide-2-yl)-phenylacetamido]-Δ 3-cephem-4-carboxylic acid], the MIC [1] was 0.156 to 0.391 µg/mL (≈ 0.269 to 0.674 µM), the MIC [2] was 0.0625 to 0.078 µg/mL (≈ 0.108 to 0.135 µM) and the MIC (Streptococcus D) was 10 to 50 µg/mL (≈ 17.2 to 86.2 µM). For the same compound, the MIC (Streptococcus pyogenes A) was 0.000391 to 0.0078 µg/mL (≈ 0.000674 to 0.0135 µM).

N=C(N)c1ccc(CC(=O)NC2C(=O)N3C(C(=O)O)=C(CSc4nc5ccccc5s4)CSC23)cc1 (stereo not shown) [Example 92, 3-[benzothiazole-2-yl-thiomethyl]-7-[4-amidino-phenylacetamido]-Δ 3-cephem-4-carboxylic acid] was tested, and the MIC [1] was 0.156 to 0.391 µg/mL (≈ 0.289 to 0.725 µM), the MIC [2] was 0.0625 to 0.078 µg/mL (≈ 0.116 to 0.145 µM) and the MIC (Streptococcus D) was 0.196 to 6.25 µg/mL (≈ 0.363 to 11.6 µM). It also gave an MIC (Streptococcus pyogenes A) of 0.000391 to 0.0078 µg/mL (≈ 0.000725 to 0.0145 µM).

Nn1cnnc1SCC1=C(C(=O)O)N2C(=O)C(NC(=O)Cc3ccc(C4=NCCCN4)cc3)C2SC1 (stereo not shown) [Example 100, 3-[(4-amino-4H-1,2,4-triazole-3-yl)-thiomethyl]-7-[4-(1,4,5,6-tetrahydropyrimide-2-yl)-phenylacetamido]-Δ3-cephem-4-carboxylic acid] gave an MIC (Proteus mirabilis) of 3.1 to 12.5 µg/mL (≈ 5.86 to 23.6 µM) and an MIC (Streptococcus pyogenes A) of 0.008 to 0.0156 µg/mL (≈ 0.0151 to 0.0295 µM).

In the case of Cc1nnc(SCC2=C(C(=O)O)N3C(=O)C(NC(=O)Cc4ccc(C5=NCCCN5)cc4)C3SC2)n1N (stereo not shown) [Example 101, 3-[(4-amino-5-methyl-1,2,4-triazole-3-yl)-thiomethyl]-7-[4-(1,4,5,6-tetrahydropyrimide-2-yl)-phenylacetamido]-Δ3-cephem-4-carboxylic acid], the MIC [1] is reported as 0.5 to 1.25 µg/mL (≈ 0.921 to 2.3 µM) and the MIC (Proteus mirabilis) is reported as 25 µg/mL (≈ 46.1 µM).

O=C(Cc1ccc(C2=NCCCN2)cc1)NC1C(=O)N2C(C(=O)O)=C(CSc3nnc(-c4ccccc4)o3)CSC12 (stereo not shown) [Example 103, 3-[(5-phenyl-1,3,4-oxadiazole-2-yl)-thiomethyl]-7-[4-(1,4,5,6-tetrahydropyrimide-2-yl)-phenylacetamido]-Δ3-cephem-4-carboxylic acid] was tested, and the “Minimum inhibition concentration (MIC)” value ([1]; Germ: Staphylococcus aureus 285) was 0.156 to 0.391 µg/mL, the MIC [2] was 0.0625 to 0.078 µg/mL (≈ 0.106 to 0.132 µM) and the “Minimum inhibition concentration (MIC)” value (Streptococcus D) was 10 to 50 µg/mL. The “Minimum inhibition concentration (MIC)” value (Streptococcus pyogenes A) was 0.000391 to 0.0078 µg/mL.
